Results: PMC4558166, “Trametinib modulates cancer multidrug resistance by targeting ABCB1 transporter” (Oncotarget, 2015)

Molecular target: ABCB1 (MDR1/P-glycoprotein) (Homo sapiens, UniProt P08183)
Experiment: Vi-sensitive ATPase stimulation in High Five insect cell membrane vesicles; also rhodamine […]/doxorubicin accumulation in ABCB1-overexpressing cells
Assay type: biochemical

Sequence of ABCB1 (MDR1/P-glycoprotein) (P08183 whole entry): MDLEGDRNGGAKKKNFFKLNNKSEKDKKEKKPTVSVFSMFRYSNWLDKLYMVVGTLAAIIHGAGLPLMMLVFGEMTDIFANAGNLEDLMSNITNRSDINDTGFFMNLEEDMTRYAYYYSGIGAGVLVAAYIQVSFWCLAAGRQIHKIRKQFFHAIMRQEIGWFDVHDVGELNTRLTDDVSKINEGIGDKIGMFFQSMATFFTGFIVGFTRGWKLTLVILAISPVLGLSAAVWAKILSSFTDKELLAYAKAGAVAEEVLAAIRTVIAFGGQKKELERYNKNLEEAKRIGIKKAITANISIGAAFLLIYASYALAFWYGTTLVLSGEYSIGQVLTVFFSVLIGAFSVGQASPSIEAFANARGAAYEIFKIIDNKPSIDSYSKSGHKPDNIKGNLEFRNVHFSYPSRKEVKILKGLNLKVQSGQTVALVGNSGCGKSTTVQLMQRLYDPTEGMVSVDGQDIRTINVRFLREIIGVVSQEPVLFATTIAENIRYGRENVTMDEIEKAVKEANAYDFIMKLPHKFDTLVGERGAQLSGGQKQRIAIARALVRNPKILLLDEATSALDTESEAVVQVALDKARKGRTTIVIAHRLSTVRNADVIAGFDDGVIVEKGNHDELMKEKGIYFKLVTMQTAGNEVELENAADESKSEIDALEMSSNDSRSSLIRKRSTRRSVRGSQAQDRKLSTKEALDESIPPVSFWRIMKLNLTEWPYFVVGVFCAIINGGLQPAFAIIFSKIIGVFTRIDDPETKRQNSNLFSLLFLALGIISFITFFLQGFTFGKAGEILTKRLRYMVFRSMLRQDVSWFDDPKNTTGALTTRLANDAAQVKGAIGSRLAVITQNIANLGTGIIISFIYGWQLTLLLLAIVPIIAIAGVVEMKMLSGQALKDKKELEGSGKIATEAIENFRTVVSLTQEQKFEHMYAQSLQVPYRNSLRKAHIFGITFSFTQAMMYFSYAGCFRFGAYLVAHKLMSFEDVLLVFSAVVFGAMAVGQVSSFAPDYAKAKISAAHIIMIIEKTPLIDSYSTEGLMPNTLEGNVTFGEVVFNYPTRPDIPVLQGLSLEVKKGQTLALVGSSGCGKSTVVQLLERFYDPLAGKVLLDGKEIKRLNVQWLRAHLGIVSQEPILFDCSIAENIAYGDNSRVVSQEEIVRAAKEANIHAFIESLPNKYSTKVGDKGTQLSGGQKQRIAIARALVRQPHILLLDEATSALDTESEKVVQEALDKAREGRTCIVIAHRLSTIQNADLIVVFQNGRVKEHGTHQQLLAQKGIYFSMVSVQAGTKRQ

CC(=O)Nc1cccc(-n2c(=O)n(C3CC3)c(=O)c3c(Nc4ccc(I)cc4F)n(C)c(=O)c(C)c32)c1 [Trametinib]
EC50: 1020 nM
